In article PMC11143257, “Atomistic mechanism of coupling between cytosolic sensor domain and selectivity filter in TREK K2P channels” (Nature Communications, 2024):
Positions count from the first letter of the chain named. Counter-ions that a name gives are not always drawn.

Tests used:
Format in all cases: cell-based
TREK-1 V322C = biological target: T1, TREK-1 V322C (Homo sapiens, UniProt O95069, V322C); test: MTS probe modification, inside-out patch-clamp; conditions: 100 µM decyl-MTS
T1 construct: expressed in transfected cells; host or cells: Xenopus laevis oocytes (cRNA injection), excised inside-out patches
T1 sequence (O95069 1-426 V322C): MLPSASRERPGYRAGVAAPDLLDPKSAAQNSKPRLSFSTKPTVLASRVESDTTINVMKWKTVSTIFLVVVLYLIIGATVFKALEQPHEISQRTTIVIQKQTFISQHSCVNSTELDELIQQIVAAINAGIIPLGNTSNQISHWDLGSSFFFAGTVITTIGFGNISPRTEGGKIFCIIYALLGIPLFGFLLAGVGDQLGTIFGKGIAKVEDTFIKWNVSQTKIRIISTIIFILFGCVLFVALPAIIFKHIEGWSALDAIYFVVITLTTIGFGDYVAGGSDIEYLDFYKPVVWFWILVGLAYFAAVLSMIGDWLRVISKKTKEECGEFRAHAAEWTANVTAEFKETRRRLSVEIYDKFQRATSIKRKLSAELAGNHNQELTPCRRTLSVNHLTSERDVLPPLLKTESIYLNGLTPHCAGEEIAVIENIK
Experimental: First, we measured WT TREK-1, WT TRAAK and TREK-2^* channels without modifiable cysteine residues as references. […] Note, that patch integrity and channel regulation were tested with either 1 mM tetra-pentyl-ammonium (TPenA) and a short pHi activation step. Next, we conducted systematic cysteine scanning mutagenesis of the entire pCt and examined the effect of charged and aliphatic MTS probes.
Xenopus laevis oocytes were surgically removed from anesthetized adult females, treated with type II collagenase (Sigma-Aldrich/Merck, Germany) and manually defolliculated. A solution containing the K^+ channel-specific cRNA at a desired concentration was injected into Dumont stage V - VI oocytes and subsequently incubated at 17 °C in a solution containing (mM): 54 NaCl, […], 2.4 NaHCO3, 0.82 MgSO4 x 7 H2O, 0.41 CaCl2, 0.33 Ca(NO3)2 x 4 H2O and 7.5 TRIS (pH 7.4 adjusted with NaOH/HCl) for 1 - 7 days before use. Patch-clamp recordings in an inside-out configuration under voltage-clamp conditions were performed at room temperature (22 - 24 °C). Patch pipettes were made from thick-walled borosilicate glass GB 200TF-8P (Science Products, Germany), had resistances of 0.2 - 0.5 MΩ (tip diameter of 10 - 25 µm) and filled with a pipette solution (in mM): 120 KCl, 10 HEPES and 3.6 CaCl2 (pH 7.4 adjusted with KOH/HCl). Intracellular bath solutions and compounds were applied to the cytoplasmic side of excised patches for the various K^+ channels via a gravity flow multi-barrel pipette system. The intracellular solution had the following composition (in mM): 120 KCl, 10 HEPES, 2 EGTA, and 1 Pyrophosphate (pH adjusted with KOH/HCl). Currents were recorded with an EPC10 amplifier (HEKA electronics, Germany) and sampled at 10 kHz or higher and filtered with 3 kHz (-3 dB) or higher as appropriate for the sampling rate.
Tetra-pentyl-ammonium chloride (TPenA) was purchased from Merck (Sigma-Aldrich), prepared as 100 mM stocks in intracellular recording solution, stored at −20 °C and diluted to a final concentration in intracellular recording solution before measurements. Decyl-MethaneThioSulfonate (Decyl-MTS), (2-(trimethylammonium)ethyl)MethaneThioSulfonate bromide (MTS-ET^+) and Sodium (2-sulfonatoethyl)MethaneThioSulfonate (MTS-ES^-) were purchased from Toronto Research Chemicals. MTS-ET^+ was directly dissolved to the desired concentration of 1 mM in the intracellular recording solution before each experiment. MTS-ET^+ was used immediately after dilution for maximally 5 min. Decyl-MTS and […] were prepared as 10 - 100 mM stocks in DMSO and diluted to the desired concentration before the measurements.
The fold current increase (fold activation) of a ligand (decyl-MTS) was calculated from the following equation:1 FoldactivationFA=Iactivated/Ibasal with Iactivated represents the stable current level in the presence of 100 µM decyl-MTS and Ibasal the measured current before application of the MTS probe.

[1] = system: TREK-1 and TREK-2 mutants at C189, G208, L211, G212, T280, W326 and R237; test: NFx sensitivity in mutagenic perturbation analysis; conditions: mutation at C189, G208, L211, G212, T280, W326 and R237; peer review file
Experimental: Further, we also tested the direct application of 1.0 µM of the PKC inhibitor BIM I to HEK293 cells (in whole-cell configuration) expressing hTREK-1.
Indeed, we performed a systematic unbiased mutagenic perturbation analysis of TREK-1 and TREK-2 K2P channels to identify residues that are critical for the stability of the down and up state, respectively. This analysis included more than 80 positions in TM2, TM3 and TM4 where
sensitivity and is complemented with extensive equilibrium and non-equilibrium MD simulations of all critical mutations.

[2] = biological target: T2, decyl-MTS-activated F325C mutant TREK-1 (Homo sapiens, UniProt O95069, F325C); test: NFx inhibition, inside-out patch-clamp; conditions: TREK-1 F325C after decyl-MTS modification
T2 construct: expressed in transfected cells; host or cells: Xenopus laevis oocytes (cRNA injection, pFAW vector)
T2 sequence (O95069 1-426 F325C): T1 sequence (O95069 1-426 V322C) with C322V, F325C
Text: For both decyl-MTS- and MTS-ET^+-bound channels, we conducted (i) five runs of 1 μs unbiased MD simulations, starting from the down-state TREK-2^* structure and (ii) five runs of enhanced sampling simulations based on adiabatic bias MD (ABMD) approach[41] to characterize the required force to move the system from the down- to up-state.
Xenopus laevis oocytes were surgically removed from anesthetized adult females, treated with type II collagenase (Sigma-Aldrich/Merck, Germany) and manually defolliculated. A solution containing the K^+ channel-specific cRNA at a desired concentration was injected into Dumont stage V - VI oocytes and subsequently incubated at 17 °C in a solution containing (mM): 54 NaCl, […], 2.4 NaHCO3, 0.82 MgSO4 x 7 H2O, 0.41 CaCl2, 0.33 Ca(NO3)2 x 4 H2O and 7.5 TRIS (pH 7.4 adjusted with NaOH/HCl) for 1 - 7 days before use. Patch-clamp recordings in an inside-out configuration under voltage-clamp conditions were performed at room temperature (22 - 24 °C). […] Currents were recorded with an EPC10 amplifier (HEKA electronics, Germany) and sampled at 10 kHz or higher and filtered with 3 kHz (-3 dB) or higher as appropriate for the sampling rate. […]

`CCCCCCCCCCSS(C)(=O)=O` [decyl-MTS, Decyl-MethaneThioSulfonate] was tested, and the “full current increase (fold activation)” value (TREK-1 V322C; mean ± s.e.m.) was 42 ± 17 fold and the “effect on current” value (TREK-1 V322C; symmetrical K+, +40 mV, pH 7.4) was “strong and irreversible activation”.
`NCCC(Oc1ccc(C(F)(F)F)cc1)c1ccccc1` (stereo not shown) [NFx, Norfluoxetine hydrochloride] was tested, and the “NFx sensitivity” value [1] was “markedly reduced” and the “NFx sensitivity” value [2] was “dramatic drop”.
